From patent publication EP0741709B1, “AROMATIC 2-AMINO-IMIDAZOLE DERIVATIVES AS ALPHA-2A ADRENOCEPTOR AGONISTS” (Allergan Sales, Inc., priority 1994, dated 1995)

biological target: T1, α2A receptor (Oryctolagus cuniculus, UniProt Q5ZQK3); experiment: Vas deferens functional assay: reduction of electrically evoked contractions; format: cell-based; conditions: field-stimulated isolated rabbit vas deferens, 50% reduction in peak height
T1 construct: The prostatic ends of the vas deferens (2-3 cm) were removed from albino rabbits; from tissue; host or cells: rabbit vas deferens (prostatic end)
T1 sequence (Q5ZQK3 1-451): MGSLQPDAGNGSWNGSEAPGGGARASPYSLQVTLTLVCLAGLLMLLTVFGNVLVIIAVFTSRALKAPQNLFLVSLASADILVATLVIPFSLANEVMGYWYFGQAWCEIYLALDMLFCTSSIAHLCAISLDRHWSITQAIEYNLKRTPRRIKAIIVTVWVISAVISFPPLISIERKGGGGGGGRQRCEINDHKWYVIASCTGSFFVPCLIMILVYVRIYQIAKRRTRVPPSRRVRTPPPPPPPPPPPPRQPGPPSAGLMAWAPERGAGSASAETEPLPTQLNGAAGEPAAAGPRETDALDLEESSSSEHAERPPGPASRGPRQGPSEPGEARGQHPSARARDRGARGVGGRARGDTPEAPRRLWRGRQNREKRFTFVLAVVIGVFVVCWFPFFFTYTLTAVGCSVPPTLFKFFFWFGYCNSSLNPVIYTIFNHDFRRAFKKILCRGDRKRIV
Experimental: Vas Deferens: The prostatic ends of the vas deferens (2-3 cm) were removed from albino rabbits and mounted between platinum electrodes in 9 mL organ baths containing Krebs-Hensleit solution of the following composition (mM): NaCl 119, KCl 4.7, MgSO4 1.5, KH2PO4 1.2. CaCl2 2.5, NaHCO3 25 and glucose 11. This solution was maintained at 35° C and bubbled with 95% O2 and 5% CO2. The tissue was equilibrated at 0.5 g tension for 30 minutes. The vas deferens strips were then field stimulated at 0.1 Hz, 2 msec, 90 mA using a square wave stimulator (World Precision Instruments A310 Accupulser / A385 Stimulus Isolater), or a Grass S48 stimulator at 0.1 Hz, 2 msec, 70 volts. After 30 minutes of electrical stimulation, cumulative concentration-response curves in 0.25 log units were obtained with a 4 minute contact time for each concentration. Each tissue was used to evaluate only one drug. Tissue contractions produced by the field stimulation were measured isometrically using Grass FT-.03 force-displacement transducers and recorded on a Grass Model 7D physiograph. The reduction in electrically-evoked peak height by the drugs was measured and expressed as a percentage of the pre-drug peak height.
Representative compounds of the present invention, and comparative examples, were tested according to the procedures given above. The receptor binding studies and […] are measures of the affinity of a compound for a particular receptor. The vas deferens assay is a measure of the degree of activation of the α2A affected when a compound binds to that receptor.

Q: How did the EC50 turn out when `c1ccc(Nc2ncc[nH]2)cc1` was run?
A: Its EC50 is 56200 nM.

Q: How did the EC50 turn out when `Brc1c(Nc2ncc[nH]2)ccc2nccnc12` was run?
A: Its EC50 is 49.4 nM.

Q: Which EC50 does the source give for `Clc1cccc(Cl)c1Nc1ncc[nH]1` here?
A: The EC50 was 86.3 nM.

Q: Which EC50 does the source give for `Cc1c(Nc2ncc[nH]2)ccc2c1OCCO2` here?
A: The EC50 was 1.61 nM.

Q: How did the EC50 turn out when `Cc1c(Nc2ncc[nH]2)ccc2nccnc12` was run?
A: Its EC50 is 35.3 nM.
